In patent US20240308968A1, “FUNGICIDAL SUBSTITUTED HETEROCYCLES” (FMC Corporation, priority 2021, published 2024):

What was measured:
Format in all cases: in vivo
Conditions in all cases: 100 = 100% disease control, 0 = no control
[1] = test system: Alternaria solani; test: Test F: preventive spray on tomato seedlings, tomato early blight disease rating
How it was run: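 Tomato seedlings were sprayed to run-off with compound suspensions in ppm (acetone/water with PEG400 surfactant) and inoculated with Alternaria solani spores the next day. Plants were held 48 h saturated at 27 °C, then 3 days at 20 °C. Disease was rated visually, with 100 as full control and 0 as none, relative to controls.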

[2] = test system: Puccinia recondita f. sp. Tritici; test: Test B: preventive spray on wheat seedlings, wheat leaf rust disease rating
How it was run: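 Compounds in acetone/water (50/50) with 50-250 ppm PEG400 sprayed to run-off on wheat seedlings; inoculated with P. recondita spores next day. Held 24 h saturated at 20° C., then 7 days in growth chamber at 20° C. before rating; 100 = full control, 0 = none versus controls.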

[3] = test system: Botrytis cinerea; test: Test E: preventive spray on tomato seedlings, tomato Botrytis disease rating
How it was run: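 Tomato seedlings sprayed to run-off with compound suspended in acetone/water with PEG400 surfactant, then inoculated next day with Botrytis cinerea spores. Held 48 h saturated at 20 °C, then 3 days at 24 °C; disease rated visually, 0 to 100% control relative to controls.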

[4] = test system: Zymoseptoria tritici; test: Test A: preventive spray on wheat seedlings, wheat leaf blotch disease rating
How it was run: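 Compounds in acetone/water (50/50) with 50–250 ppm PEG400, sprayed to run-off on wheat seedlings. Inoculated next day with Z. tritici spores, 48 h saturated atmosphere at 24 °C, then 17 days at 20 °C before disease rating.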

[5] = test system: Blumeria graminis f. sp. Tritici; test: Test C: preventive spray on wheat seedlings, wheat powdery mildew disease rating
How it was run: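 Wheat seedlings sprayed to run-off with test suspension (acetone 3% dissolution, then acetone/water 50/50 with 50–250 ppm PEG400), inoculated next day with Blumeria graminis spore dust. Held 8 days at 20° C in growth chamber, then visually rated (100 = full control, 0 = none, relative to controls).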

[6] = test system: Phakopsora pachyrhizi; test: Test D: preventive spray on soybean seedlings, Asian soybean rust disease rating
How it was run: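 Compounds in acetone/water (50/50) with 50–250 ppm PEG400 sprayed to run-off on soybean seedlings; inoculated next day with P. pachyrhizi spores, held 24 h saturated at 22° C, then 8 days at 22° C before visual disease rating.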

Row | SMILES | Test F disease control rating ([1]; 50 ppm) [%] | Test B disease control rating ([2]; 50 ppm) [%] | Test E disease control rating ([3]; 50 ppm) [%] | Test A disease control rating ([4]; 50 ppm) [%] | Test C disease control rating ([5]; 50 ppm) [%] | Test D disease control rating ([6]; 50 ppm) [%] | Test F disease control rating ([1]; 250 ppm) [%] | Test B disease control rating ([2]; 250 ppm) [%] | Test E disease control rating ([3]; 250 ppm) [%] | Test A disease control rating ([4]; 250 ppm) [%] | Test C disease control rating ([5]; 250 ppm) [%] | Test D disease control rating ([6]; 250 ppm) [%]
1 | CCn1c(-c2c(F)cc(F)cc2F)c(-c2cc(OC)c(Cl)c(OC)c2)cc(C#N)c1=O [Compound 72] | 0 | 98 | 90 | 93 | 21 | 77 | – | – | – | – | – | –
2 | CCOC(=O)c1nn(-c2cc(OC)ccc2Cl)c(-c2ccc(F)cc2F)c(C(=O)OCC)c1=O [Compound 81] | 0 | 19 | 0 | 0 | 0 | 0 | – | – | – | – | – | –
3 | CCOC(=O)c1nn(-c2cc(OC)ccc2Cl)c(-c2ccc(F)cc2)c(C(=O)OCC)c1=O [Compound 82] | 0 | 28 | 0 | 3 | 0 | 0 | – | – | – | – | – | –
4 | COc1cc(OC)c(Cl)c(-n2nc(C#N)c(=O)c(C)c2-c2ccc(F)cc2Cl)c1 [Compound 83] | 100 | 100 | 94 | 99 | 98 | 100 | – | – | – | – | – | –
5 | COc1cc(OC)c(Cl)c(-n2nc(C)c(=O)c(C)c2-c2ccc(F)cc2Cl)c1 [Compound 84] | 100 | 100 | 94 | 100 | 99 | 100 | – | – | – | – | – | –
6 | COc1cc(OC)c(Cl)c(-n2nc(CF)c(=O)c(C)c2-c2ccc(F)cc2Cl)c1 [Compound 85] | 100 | 100 | 93 | 100 | 99 | 100 | – | – | – | – | – | –
7 | COc1cc(OC)c(Cl)c(-n2nc(NC(=O)OC(C)(C)C)c(=O)c(C)c2-c2ccc(F)cc2Cl)c1 [Compound 86] | – | – | – | – | – | – | 0 | 98 | 43 | 83 | 0 | 0
8 | COc1cc(OC)c(Cl)c(-n2nc(N)c(=O)c(C)c2-c2ccc(F)cc2Cl)c1 [Compound 87] | 99 | 98 | 96 | 100 | 96 | 100 | – | – | – | – | – | –
9 | CCOC(=O)c1nn(-c2cc(OC)cc(OC)c2)c(-c2ccc(F)cc2F)c(C(=O)OCC)c1=O [Compound 88] | – | – | – | – | – | – | 0 | 0 | 0 | 0 | 0 | 0
10 | CCOC(=O)c1c(-c2ccc(F)cc2F)n(-c2cc(OC)cc(OC)c2)nc(C(=O)O)c1=O [Compound 89] | – | – | – | – | – | – | 0 | 0 | 0 | 0 | 0 | 0
11 | COc1cc(OC)cc(-n2nc(CF)c(=O)c(C)c2-c2ccc(F)cc2Cl)c1 [Compound 90] | 99 | 100 | 99 | 99 | 97 | 100 | – | – | – | – | – | –
12 | COc1cc(OC)cc(-n2nc(CO)c(=O)c(C)c2-c2ccc(F)cc2Cl)c1 [Compound 91] | – | – | – | – | – | – | 17 | 99 | 79 | 0 | 0 | 75
13 | COc1cc(OC)c(Cl)c(-n2nc(I)c(=O)c(C)c2-c2ccc(F)cc2Cl)c1 [Compound 96] | 100 | 100 | 98 | 100 | 99 | 100 | – | – | – | – | – | –
14 | CCOC(=O)c1nn(-c2cc(OC)cc(OC)c2Cl)c(-c2ccc(F)cc2Cl)c(C)c1=O [Compound 98] | – | – | – | – | – | – | 0 | 98 | 96 | 0 | 0 | 94
15 | COc1cc(OC)c(Cl)c(-n2nc(CO)c(=O)c(Cl)c2-c2ccc(F)cc2Cl)c1 [Compound 99] | – | – | – | – | – | – | 96 | 100 | 93 | 100 | 95 | 99
16 | COc1ccc(Cl)c(-n2nc(Br)c(=O)c(Cl)c2-c2ccc(F)cc2Cl)c1 [Compound 101] | 98 | 99 | 98 | 98 | 89 | 99 | – | – | – | – | – | –
17 | COc1ccc(Cl)c(-n2nc(Br)c(=O)c(Br)c2-c2ccc(F)cc2Cl)c1 [Compound 102] | 88 | 99 | 99 | 97 | 0 | 99 | – | – | – | – | – | –
18 | COc1ccc(Cl)c(-n2nc(Cl)c(=O)c(Cl)c2-c2ccc(F)cc2Cl)c1 [Compound 103] | 99 | 100 | 100 | 100 | 97 | 100 | – | – | – | – | – | –
19 | COc1ccc(Cl)c(-n2nc(OC)c(=O)cc2-c2ccc(F)cc2Cl)c1 [Compound 118] | 0 | 99 | 97 | 80 | 56 | 0 | – | – | – | – | – | –
20 | COC(=O)c1nn(-c2cc(OC)ccc2Cl)c(-c2ccccc2F)c(Cl)c1=O [Compound 122] | 0 | 19 | 0 | 0 | 0 | 0 | – | – | – | – | – | –
21 | COc1ccc(Cl)c(-n2nc(C)c(=O)c(Cl)c2-c2ccc(F)cc2Cl)c1 [Compound 123, 5-chloro-1-(2-chloro-5-methoxyphenyl)-6-(2-chloro-4-fluorophenyl)-3-methyl-4(1)-pyridazinone] | 100 | 100 | 99 | 100 | 100 | 100 | – | – | – | – | – | –
22 | COc1ccc(Cl)c(-n2nc(C)c(=O)c(Br)c2-c2ccc(F)cc2Cl)c1 [Compound 124, 5-bromo-1-(2-chloro-5-methoxyphenyl)-6-(2-chloro-4-fluorophenyl)-3-methyl-4(1)-pyridazinone] | 100 | 100 | 99 | 100 | 100 | 100 | – | – | – | – | – | –
23 | CCOC(=O)c1nn(-c2cc(OC)cc(OC)c2)c(-c2ccc(F)cc2)c(C(=O)OCC)c1=O [Compound 125] | 0 | 28 | 0 | 3 | 0 | 0 | – | – | – | – | – | –
24 | CCOC(=O)c1nn(-c2cc(OC)cc(OC)c2Cl)c(-c2ccc(F)cc2)c(C(=O)OCC)c1=O [Compound 126] | 0 | 28 | 0 | 0 | 0 | 0 | – | – | – | – | – | –
25 | CCOC(=O)c1nn(-c2cc(OC)cc(OC)c2Cl)c(-c2ccc(F)cc2F)c(C(=O)OCC)c1=O [Compound 127] | 0 | 41 | 0 | 0 | 0 | 0 | – | – | – | – | – | –
